Values joined by “and” are separate entries in the source; they are usually repeats but may differ in a detail not shown here. Equal values may be shown once. “Also recorded” adds a separate entry of the source. Read-outs that look alike come from different tables or passages of the source.
Legend:
[1] = cited from earlier work
[2] = human; approaching; cited from earlier work
[3] = Plasma carnitine concentrations in Greyhound dogs on commercial dog food supplemented with L-Carnitine (ground beef); type: in vivo; settings: for concentration at 168 h / concentration at 336 h: dog, plasma, po, 350 mg/animal/day
Procedure: Six apparently healthy Greyhound dogs were determined to be normal by physical examination, fecal flotation, complete blood count, serum biochemical profile, ECG, and echocardiography. They were fed a standard commercial dog food diet free choice for a one-month control period. Control plasma samples (as well as subsequent test samples) were obtained following an eight-hour fast on two consecutive days for analysis of total, free, and esterified L-Carnitine concentration. The average of the plasma L-Carnitine concentration on two consecutive days was taken for each dog and each measuring period. Following the control period, all of the dogs were continued for two weeks on the standard commercial dog food diet supplemented with L-Carnitine. The L-Carnitine supplement was in the form of 0.5 kg per dog per day of raw frozen lean ground beef. This was equivalent to a daily supplement of 350 mg. of L-Carnitine per dog. Plasma samples were drawn on days 7 and 8 (averaged for the one-week measurement) and days 13 and 14 (averaged for the two-week measurement) for L-Carnitine analysis. Differences between the means of each test period and control were determined by the Student's t test.

[4] = tested on: cardiomyopathy; settings: restoration toward normal of deficient L-Carnitine levels; dogs; cited from earlier work
[5] = mammalian species; cited from earlier work
[6] = Renal reabsorption of L-Carnitine in dogs; type: in vivo, dog
[7] = tested on: fatty acid oxidation in muscle homogenates; settings: certain L-Carnitine deficient patients; cited from earlier work
[8] = cited from earlier work; remark: listed apart in the source
[9] = tested on: cardiomyopathy; settings: restoration toward normal of deficient L-Carnitine levels; hamsters; cited from earlier work
[10] = rats; cited from earlier work
[11] = tested on: carnitine deficiency syndromes; settings: humans; U.S. Pat. No. 4,382,092; cited from earlier work
[12] = Changes in serum L-Carnitine following oral administration of gamma-butyrobetaine; type: in vivo; settings: administering GBB to a dog
Excerpt: Changes in serum L-Carnitine following oral
administration of 5 grams of gamma-butyro-betaine. Amounts

In the case of C[N+](C)(C)C[C@H](O)CC(=O)[O-] [L-Carnitine], the Solubility in water [1] is listed as “extremely soluble in water”, the Renal reabsorption [2] is listed as ~100% and the concentration ([3]; Week 1, individual dogs 1-6, ground beef 0.5 kg/day/dog (350 mg L-Carnitine/day), 10080 min, read-out: Plasma carnitine concentration, Free) is listed as 60.5 µM and 52.5 µM and 55.6 µM and 56 µM and 51.7 µM. For the same compound, the concentration ([3]; Week 1, individual dogs 1-6, ground beef 0.5 kg/day/dog (350 mg L-Carnitine/day), 10080 min, read-out: Plasma carnitine concentration, Total) was 70.7 µM and 57.2 µM and 63.1 µM and 58.1 µM and 56.3 µM, the concentration ([3]; Week 2, individual dogs 1-6, ground beef 0.5 kg/day/dog (350 mg L-Carnitine/day), 20160 min, read-out: Plasma carnitine concentration, Free) was 62.2 µM and 52.7 µM and 52 µM and 58.5 µM and 41 µM and the concentration ([3]; Week 2, individual dogs 1-6, ground beef 0.5 kg/day/dog (350 mg L-Carnitine/day), 20160 min, read-out: Plasma carnitine concentration, Total) was 65.7 µM and 58.1 µM and 56.3 µM and 66.3 µM and 43.2 µM. The “Plasma total L-Carnitine concentration (in words)” value ([3]; diet supplemented with L-Carnitine) was “significantly increased; also recorded: stabilizes in a range that is considered normal; also recorded: dramatically increase the plasma concentration of L-Carnitine in dogs”, the concentration at 168 h ([3]; Week 1, average of 6 dogs, S.D. ±3.5, ** p ≤ 0.01 vs control, read-out: Plasma carnitine concentration, Free, AVG) was 55.9 µM and the concentration at 168 h ([3]; Week 1, average of 6 dogs, S.D. ±6.5, * p ≤ 0.05 vs control, read-out: Plasma carnitine concentration, Total, AVG) was 62.5 µM. It also gave a concentration at 168 h ([3]; Week 1, individual dogs 1-6, ground beef 0.5 kg/day/dog (350 mg L-Carnitine/day), read-out: Plasma carnitine concentration, Free) of 58.9 µM, a concentration at 168 h ([3]; Week 1, individual dogs 1-6, ground beef 0.5 kg/day/dog (350 mg L-Carnitine/day), read-out: Plasma carnitine concentration, Total) of 70.1 µM and a concentration at 336 h ([3]; Week 2, average of 6 dogs, S.D. ±8.0, * p ≤ 0.05 vs control, read-out: Plasma carnitine concentration, Free, AVG) of 51.9 µM. For the same compound, the concentration at 336 h ([3]; Week 2, average of 6 dogs, S.D. ±8.6, read-out: Plasma carnitine concentration, Total, AVG) was 57 µM, the concentration at 336 h ([3]; Week 2, individual dogs 1-6, ground beef 0.5 kg/day/dog (350 mg L-Carnitine/day), read-out: Plasma carnitine concentration, Free) was 44.9 µM and the concentration at 336 h ([3]; Week 2, individual dogs 1-6, ground beef 0.5 kg/day/dog (350 mg L-Carnitine/day), read-out: Plasma carnitine concentration, Total) was 52.4 µM. For the same compound, the Myocardial function [4] was “improved myocardial function”, the “L-Carnitine concentration in cardiac and skeletal muscle relative to serum” value [5] was “much higher than in serum” and the “Renal reabsorption, average” value [6] was “approximately 75%”. The “Fatty acid oxidation in muscle homogenates” value [7] was “restoration to normal of fatty acid oxidation”, the “Plasma total carnitine, mean” value ([8]; human females) was 51.5 ± 11.6 µM and the “Plasma total carnitine, mean” value ([8]; human males) was 59.3 ± 11.9 µM. For the same compound, the Myocardial function [9] was “improved myocardial function” and the “Plasma carnitine concentration, average” value [10] was 56.5 ± 2.2 µM.
For C[N+](C)(C)CCCC(=O)[O-] [gamma-butyro-betaine, gamma-butyrobetaine], the “Alleviation of carnitine deficiency syndromes” value [11] is given as “used successfully to alleviate carnitine deficiency syndromes in humans” and the “Effect on serum L-Carnitine (in words)” value [12] is given as “produces a concomitant use in serum L-Carnitine”.
